Entries after “also recorded” stand apart in the source; their conditions may differ.
Experiments:
HT1080 cells [1] = assay: Gene expression by MEND (luciferase assay, RLU/mg protein); format: cell-based; settings: for gene expression activity (luciferase activity per cell protein): cationic lipid:SOPE:Chol=3:4:3, PEG2000DSG, pDNA 0.4 μg/well, 24 hr; for gene expression activity: B-2-4:DOPE:Chol=3:3:4, B-2-5:POPE:Chol=3:3:4, B-2:SOPE:Chol=5:3:2, PEG2000-DMG
Procedure: Using B-2 (Example 1), B-2-1 (Comparative Example 1), and DODAP (Comparative Example 2) as cationic lipids, MENDs having a composition of cationic lipid:SOPE:Chol=3:4:3 were prepared by the method described in [Experimental Example 1] (2). For the preparation, PEG2000DSG was used as PEG lipid, and MEND solutions corresponding to 0.55 mM of the lipid concentration were prepared. For cationic MEND, lipids having a composition of DOTAP:DOPE:Chol:=3:4:3 were used, and the cationic MEND was prepared according to the method described in [Experimental Example 1] (3).
HT1080 cells were plated on a 24-well plate at 4×10^4 cells/500 μL/well 24 hr before, various MENDs were diluted with DMEM (FBS 10%+) to a pDNA amount of 0.4 μg/500 μL/well and transfected. 24 hr later, the cells were washed with PBS(−) (500 μL), 1× Lysis buffer was added to each well by 75 μL, and the mixture was stood at −80° C. for 30 min or longer. The frozen 24-well plate was thawed on ice, the cells were detached with a cell scraper, and the total amount thereof was transferred into an Eppendorf tube and centrifuged under the conditions of 15000 rpm, 4° C., 5 min. The supernatant (50 μL) was recovered in a different Eppendorf tube, and used for luciferase assay and BCA assay.
20 μL thereof was mixed with a Luciferase assay substrate (50 μL), and the luciferase activity in a given time was measured by a luminometer. The obtained lysate was diluted 5-fold with DDW to achieve 25 μL total volume. Thereto was added BCA Protein Assay Reagent (200 μL), and the mixture was stood at 37° C. for 30 min. Thereafter, the absorbance at 562 nm was measured, and the protein amount of the sample was calculated from the absorbance of a BSA solution having a known concentration. The luciferase activity (RLU) was adjusted by dividing with protein amount (mg), and the luciferase activity per cell protein amount (RLU/mg protein) was calculated.
Using B-2 (Example 1), B-2-2 (Example 2), and B-2-3 (Example 3) as cationic lipids, MENDs having a composition of cationic lipid:SOPE:Chol=3:4:3 were prepared by the method described in [Experimental Example 1] (2). For the preparation, PEG2000DSG was used as PEG lipid, and MEND solutions corresponding to 0.55 mM of the lipid concentration were prepared. The gene expression was evaluated by the method described in [Example 4] (2).
Using compositions of B-2-4 (Example 4):DOPE:Chol=3:3:4, B-2-5 (Example 5):POPE:Chol=3:3:4, B-2 (Example 1):SOPE:Chol=5:3:2 as lipids, MENDs were prepared according to [Experimental Example 1](1) and (2). For the preparation, PEG2000-DMG was used as PEG lipid, and MEND solutions corresponding to 0.55 mM of the lipid concentration were prepared.
The gene expression activity was evaluated by the method described in [Experimental Example 4] (2).

HT1080 cells [2] = assay: Inhibitory effect of GA (ginkgolic acid) on gene expression; format: cell-based; settings: 0, 25, 50, 100 μM GA
Procedure: MENDs of B-2-4 (Example 4), B-2 (Example 1) were prepared according to [Experimental Example 16], [Experimental Example 1] (1), (2). For the preparation, PEG2000-DMG was used as PEG lipid, and MEND solutions corresponding to 0.55 mM of the lipid concentration were prepared.
HT1080 cells were plated on a 3.5 cm cell culture dish at 4×10^4 cells/2 mL/dish 24 hr before, various MENDs were diluted with DMEM (FBS 10%+, Phenol red free) containing a final concentration of 200 μM of D-luciferin potassium and 0, 25, 50, 100 μM of GA (Calbiochem) to achieve 1.6 μg/2 mL/dish based on the pDNA amount and transfection was performed. According to the Kronos Dio package insert, the luminescence amount was measured for 2 min every 20 min and taken as the luciferase activity (RLU/2 min).

Factor VII (FVII) = assay: Knockdown effect of siRNA-encapsulated MEND (plasma FVII); format: in vivo, ICR mice; settings: 3 mg siRNA/kg, tail vein, 24 hr
Procedure: (§1) A siRNA solution and protamine (CALBIOCHEM) solution were diluted with 10 mM HEPES buffer (pH 5.3) to 0.3 mg/mL and 0.2 mg/mL, respectively. While stirring 0.3 mg/mL siRNA solution (250 μL), 0.2 mg/mL protamine solution (250 μL) was added dropwise in small portions to prepared an electrostatic complex of siRNA and protamine (N/P ratio=1.0) as a core of the vector.
As a siRNA sequence for Factor VII (FVII), one described in Akinc et al, Molecular Therapy, 17(5) 872-879 (2009), which was free of chemical modification, was used.
(§2) A lipid solution in ethanol was mixed at a ratio of B-2:SOPE:Chol=5:3:2 for B-2 MEND (Example 1), at a ratio of B-2-4:DOPE:Chol=3:3:4 for B-2-4 MEND (Example 4), and at a ratio of B-2-5:POPE:Chol=3:4:3 for B-2-5 MEND (Example 5), to a total lipid of 660 nmol in a 5 mL tube. Further, PEG2000-DMG was added as PEG lipid in an amount equivalent to 3 mol % of the total lipid, and ethanol was added to a total volume of 400 μL each. While stirring the lipid solution by a vortex mixer, a solution (400 μL) of a nucleic acid electrostatic complex composed of siRNA/protamine prepared in [Experimental Example 27] was mixed, then 10 mM HEPES buffer (pH 5.3, 2.4 mL) was quickly added, and the mixture was vigorously stirred. The mixture was subjected to centrifugal ultrafiltration using Amicon Ultra-15 100K device (Millipore) at 1000 g, 10 min, 30° C. The mixture was sufficiently diluted with 10 mM HEPES buffer (pH 7.4), and again subjected to centrifugal ultrafiltration. This solution was adjusted to an object lipid concentration with 10 mM HEPES buffer (pH 7.4).
A MEND solution prepared by the method shown in [Experimental Example 28] was administered to 4-week-old male ICR mice at 3 mg siRNA/kg from the tail vein, and blood was collected 24 hr later. This blood sample was centrifuged at 1000 g, 10 min, 4° C., and the supernatant was recovered to obtain plasma. The amount of Factor VII (FVII) in the plasma was quantified by BIOPHEN FVII CHROMOGENIC ASSAY (HYPHEN BioMed).

[3] = Particle size and surface potential of siRNA-encapsulated MEND (ethanol dilution method); format: physicochemical; settings: siRNA/protamine MEND, PEG2000-DMG 3 mol %
Procedure: as §1, §2
The particle size and surface potential were measured using the dynamic light scattering method (Zetasizer Nano; Malvern). The particle size and surface potential of various MENDs prepared by the preparation method of [Experimental Example 28] are shown in Table 5.

Row | Structure (SMILES) | gene expression activity (luciferase activity per cell protein) (HT1080 cells [1]) | gene expression activity (HT1080 cells [1]) | inhibitory effect of GA on gene expression activity (HT1080 cells [2]) | FVII expression level in plasma (knockdown effect) (Factor VII (FVII)) | PDI [3] | size (nm) [3] | zeta (mV) [3] | gene transfer activity divided by the intracellular uptake amount (HT1080 cells [1]; FIG. 4)
1 | CCCCCCCCCCCCCC(=O)OCCCN(C)CCCCCCN(C)CCCOC(=O)CCCCCCCCCCCCC [Example B-2-1, reference compound] | exceeded that of a conventionally-known cationic lipid, DODAP |  |  |  |  |  |  | 
2 | CC1=C(/C=C/C(C)=C/C=C/C(C)=C/C(=O)OCCCN(C)CCSSCCN(C)CCCOC(=O)/C=C(C)/C=C/C=C(C)/C=C/C2=C(C)CCCC2(C)C)C(C)(C)CCC1 [Example B-2-4] |  | significantly higher than the activity of B-2 and B-2-5 | higher inhibitory effect on B-2-4 than on B-2 | decrease in the FVII expression level as compared to the non-treatment group | 0.11 | 186 nm | −5.1 mV | 
3 | Cc1c(C)c2c(c(C)c1OC(=O)CCC(=O)OCCCN(C)CCSSCCN(C)CCCOC(=O)CCC(=O)Oc1c(C)c(C)c3c(c1C)CCC(C)(CCCC(C)CCCC(C)CCCC(C)C)O3)CCC(C)(CCCC(C)CCCC(C)CCCC(C)C)O2 (stereo not shown) [Example B-2-5] |  | equivalent to the activity of B-2 |  | decrease in the FVII expression level as compared to the non-treatment group; also recorded: greatest knockdown effect | 0.13 | 218 nm | −9.1 mV | 
4 | CCCCCCCCCCCCCC(=O)OCCCN(C)CCSSCCN(C)CCCOC(=O)CCCCCCCCCCCCC [Example B-2] | exceeded that of a conventionally-known cationic lipid, DODAP; also recorded: significantly higher than that of MEND prepared from B-2-1; also recorded: equivalent to that of DOTAP |  | higher inhibitory effect on B-2-4 than on B-2 | decrease in the FVII expression level as compared to the non-treatment group | 0.07 | 186 nm | −1.7 mV | high as compared to conventional DOTAP, DODAP and B-2-1
